Laboratory results reported in US20240166635A1, “AMINOHETEROARYL KINASE INHIBITORS” (Anrui Biomedical Technology (Guangzhou) Co.,Ltd., priority 2020, published 2024).

Tests used:
Format in all cases: biochemical
CDK2/CyclinE1 = CDK2/CyclinE1 (Homo sapiens (Human), UniProt P24941); test: CDK2/CyclinE1 kinase inhibitory activity (Caliper mobility shift); details: read-out: CDK2/Cyclin El IC50
CDK1/CyclinB = CDK1/CyclinB (Homo sapiens (Human), UniProt P06493); test: CDK1/CyclinB kinase inhibitory activity (Caliper mobility shift); details: read-out: CDK1/Cyclin B1 IC50
CDK1/CyclinB, sequence (P06493 whole entry): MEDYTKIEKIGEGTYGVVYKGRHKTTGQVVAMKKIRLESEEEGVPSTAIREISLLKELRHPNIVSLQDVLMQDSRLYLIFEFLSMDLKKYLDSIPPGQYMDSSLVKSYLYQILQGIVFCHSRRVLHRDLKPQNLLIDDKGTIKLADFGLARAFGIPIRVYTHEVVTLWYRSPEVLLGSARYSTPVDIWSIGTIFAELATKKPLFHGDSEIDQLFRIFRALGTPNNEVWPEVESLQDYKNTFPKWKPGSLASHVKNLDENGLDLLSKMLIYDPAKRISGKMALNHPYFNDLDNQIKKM
CDK1/CyclinB, sequence (P14635 whole entry partner): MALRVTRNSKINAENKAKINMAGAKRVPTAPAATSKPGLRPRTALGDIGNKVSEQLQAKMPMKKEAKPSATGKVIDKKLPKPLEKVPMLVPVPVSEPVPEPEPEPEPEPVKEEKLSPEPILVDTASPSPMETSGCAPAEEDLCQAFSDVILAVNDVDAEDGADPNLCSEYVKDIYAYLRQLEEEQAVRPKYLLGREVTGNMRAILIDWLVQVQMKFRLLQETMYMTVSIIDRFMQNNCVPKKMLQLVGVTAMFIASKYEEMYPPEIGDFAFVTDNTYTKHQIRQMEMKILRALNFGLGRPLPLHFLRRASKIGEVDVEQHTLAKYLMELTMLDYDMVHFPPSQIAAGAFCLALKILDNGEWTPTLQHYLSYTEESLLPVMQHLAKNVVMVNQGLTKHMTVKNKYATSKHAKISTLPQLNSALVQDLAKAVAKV

CDK9/CyclinT1 = CDK9/CyclinT1 (Homo sapiens (Human), UniProt P50750); test: CDK9/CyclinT1 kinase inhibitory activity (Caliper mobility shift); details: read-out: CDK9/Cyclin T1 IC50
CDK9/CyclinT1, sequence (P50750 whole entry): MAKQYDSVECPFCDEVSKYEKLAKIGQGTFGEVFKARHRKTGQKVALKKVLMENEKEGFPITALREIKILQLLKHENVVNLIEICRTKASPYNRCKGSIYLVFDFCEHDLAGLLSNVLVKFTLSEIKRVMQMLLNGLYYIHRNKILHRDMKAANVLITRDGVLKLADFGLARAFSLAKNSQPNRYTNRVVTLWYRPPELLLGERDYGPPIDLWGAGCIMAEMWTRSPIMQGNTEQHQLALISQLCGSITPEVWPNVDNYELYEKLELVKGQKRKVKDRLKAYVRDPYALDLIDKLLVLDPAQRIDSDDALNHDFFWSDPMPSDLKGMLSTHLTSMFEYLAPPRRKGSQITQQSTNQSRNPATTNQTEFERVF
CDK9/CyclinT1, sequence (O60563 whole entry partner): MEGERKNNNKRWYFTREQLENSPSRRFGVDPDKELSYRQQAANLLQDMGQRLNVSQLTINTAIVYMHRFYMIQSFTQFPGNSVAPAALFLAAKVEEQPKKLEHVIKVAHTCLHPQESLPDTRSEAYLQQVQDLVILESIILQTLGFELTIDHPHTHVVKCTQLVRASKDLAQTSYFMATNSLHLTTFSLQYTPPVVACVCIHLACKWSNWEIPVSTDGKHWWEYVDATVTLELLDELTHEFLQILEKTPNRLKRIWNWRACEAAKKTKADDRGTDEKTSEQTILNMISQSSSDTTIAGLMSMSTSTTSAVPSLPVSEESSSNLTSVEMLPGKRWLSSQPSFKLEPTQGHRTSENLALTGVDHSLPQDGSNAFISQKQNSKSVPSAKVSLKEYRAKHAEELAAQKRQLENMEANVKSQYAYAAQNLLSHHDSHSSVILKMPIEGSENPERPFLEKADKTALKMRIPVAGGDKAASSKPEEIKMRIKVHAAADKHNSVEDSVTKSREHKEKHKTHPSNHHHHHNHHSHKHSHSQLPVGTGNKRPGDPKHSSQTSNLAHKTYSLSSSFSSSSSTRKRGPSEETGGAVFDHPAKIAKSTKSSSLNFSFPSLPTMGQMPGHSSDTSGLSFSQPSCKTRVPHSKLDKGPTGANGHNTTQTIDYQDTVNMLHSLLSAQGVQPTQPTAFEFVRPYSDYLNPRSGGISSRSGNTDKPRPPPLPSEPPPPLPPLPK

For [2H]C([2H])([2H])NS(=O)(=O)c1ccc(Nc2ncc(C#N)c(OC3CCCOCC3)n2)cc1 (single isomer, unassigned) [Example 33b], the IC50 (CDK2/CyclinE1) was less than 0.01 µM, the IC50 (CDK1/CyclinB) was 0.1 to 1 µM and the IC50 (CDK9/CyclinT1) was no less than 1 µM.

With [2H]C([2H])([2H])NS(=O)(=O)c1ccc(Nc2ncc(CC)c(OC3CCOCC3(C)O)n2)cc1 (single isomer, unassigned) [Example 152b] the IC50 (CDK2/CyclinE1) was 0.01 to 0.1 µM, the IC50 (CDK1/CyclinB) was no less than 1 µM and the IC50 (CDK9/CyclinT1) was no less than 1 µM.

N#Cc1cnc(Nc2ccc(S(N)(=O)=O)cc2)nc1OC1CCCC1CO (single isomer, unassigned) [Example 18b] showed an IC50 (CDK2/CyclinE1) of less than 0.01 µM, an IC50 (CDK1/CyclinB) of 0.01 to 0.1 µM and an IC50 (CDK9/CyclinT1) of 0.1 to 1 µM.

With C[C@@H]1CC[C@H](O)CN1c1nc(Nc2ccc(S(N)(=O)=O)cc2)ncc1C#N [Example 77] the IC50 (CDK2/CyclinE1) was less than 0.01 µM, the IC50 (CDK1/CyclinB) was 0.01 to 0.1 µM and the IC50 (CDK9/CyclinT1) was 0.01 to 0.1 µM.

CC1(O)CCCCC1Oc1nc(Nc2ccc(S(N)(=O)=O)cc2)ncc1C#N (single isomer, unassigned) [Example 24b] was tested, and the IC50 (CDK2/CyclinE1) was 0.01 to 0.1 µM, the IC50 (CDK1/CyclinB) was 0.01 to 0.1 µM and the IC50 (CDK9/CyclinT1) was 0.1 to 1 µM.

N#Cc1cnc(Nc2ccc(S(=O)(=O)NC3CC(F)(F)C3)cc2)nc1OC1CCCCC1O (single isomer, unassigned) [Example 32b] showed an IC50 (CDK2/CyclinE1) of 0.01 to 0.1 µM, an IC50 (CDK1/CyclinB) of 0.1 to 1 µM and an IC50 (CDK9/CyclinT1) of no less than 1 µM.

[2H]C([2H])([2H])NS(=O)(=O)c1ccc(Nc2ncc(CC)c(OC3CCOCC3O)n2)cc1 (single isomer, unassigned) [Example 151b] showed an IC50 (CDK2/CyclinE1) of 0.01 to 0.1 µM, an IC50 (CDK1/CyclinB) of no less than 1 µM and an IC50 (CDK9/CyclinT1) of no less than 1 µM.

For Cc1cnc(Nc2ccc(S(=O)(=O)NC3CC3)cc2)nc1OC1CCCC1O (single isomer, unassigned) [Example 146b], the IC50 (CDK2/CyclinE1) was 0.01 to 0.1 µM, the IC50 (CDK1/CyclinB) was 0.1 to 1 µM and the IC50 (CDK9/CyclinT1) was no less than 1 µM.

CC(C)NS(=O)(=O)c1ccc(Nc2ncc(C#N)c(OC3CCCCC3O)n2)cc1 (single isomer, unassigned) [Example 30a] gave an IC50 (CDK2/CyclinE1) of less than 0.01 µM, an IC50 (CDK1/CyclinB) of 0.01 to 0.1 µM and an IC50 (CDK9/CyclinT1) of 0.1 to 1 µM.

C=Cc1cnc(Nc2ccc(S(N)(=O)=O)cc2)nc1OC1CCCC1O (single isomer, unassigned) [Example 155b] showed an IC50 (CDK2/CyclinE1) of less than 0.01 µM, an IC50 (CDK1/CyclinB) of 0.1 to 1 µM and an IC50 (CDK9/CyclinT1) of 0.1 to 1 µM.

Molecule CNS(=O)(=O)c1ccc(Nc2ncc(Br)c(OC3CCCC3O)n2)cc1 (single isomer, unassigned) [Example 142b] has an IC50 (CDK2/CyclinE1) of less than 0.01 µM, an IC50 (CDK1/CyclinB) of 0.01 to 0.1 µM and an IC50 (CDK9/CyclinT1) of 0.1 to 1 µM.

Work on NS(=O)(=O)c1ccc(Nc2ncc(C(F)(F)F)c(OC3COCCC3O)n2)cc1 (single isomer, unassigned) [Example 115b] yielded an IC50 (CDK2/CyclinE1) of 0.01 to 0.1 µM, an IC50 (CDK1/CyclinB) of 0.1 to 1 µM and an IC50 (CDK9/CyclinT1) of 0.1 to 1 µM.

CS(=O)(=O)N1CCC(Nc2ncc(Br)c(OC3CCCCCC3O)n2)CC1 (single isomer, unassigned) [Example 145a] was tested, and the IC50 (CDK2/CyclinE1) was 0.01 to 0.1 µM, the IC50 (CDK1/CyclinB) was 0.1 to 1 µM and the IC50 (CDK9/CyclinT1) was no less than 1 µM.

With O=S(=O)(NC1CCOCC1)c1ccc(Nc2ncc(Cl)c(O[C@@H]3CCC[C@@H]3O)n2)cc1 (single isomer, unassigned) [Example 130b, cis-4-((5-chloro-4-((2-hydroxycyclopentyl)oxy)pyrimidin-2-yl)amino)-N-(tetrahydro-2H-pyran-4-yl)benzenesulfonamide] the IC50 (CDK2/CyclinE1) was 0.01 to 0.1 µM, the IC50 (CDK1/CyclinB) was 0.01 to 0.1 µM and the IC50 (CDK9/CyclinT1) was 0.1 to 1 µM.

[2H]C([2H])([2H])NS(=O)(=O)c1ccc(Nc2ncc(C)c(OC3CCCC3O)n2)cc1 (single isomer, unassigned) [Example 148b] was tested, and the IC50 (CDK2/CyclinE1) was 0.01 to 0.1 µM, the IC50 (CDK1/CyclinB) was 0.1 to 1 µM and the IC50 (CDK9/CyclinT1) was no less than 1 µM.

With CS(=O)(=O)N1CCC(Nc2ncc(C(F)(F)F)c(OC3CCCCC3O)n2)CC1 (single isomer, unassigned) [Example 120b] the IC50 (CDK2/CyclinE1) was 0.01 to 0.1 µM, the IC50 (CDK1/CyclinB) was 0.1 to 1 µM and the IC50 (CDK9/CyclinT1) was no less than 1 µM.

NS(=O)(=O)c1ccc(Nc2ncc(C(F)(F)F)c(OC3CCCCCC3O)n2)cc1 (single isomer, unassigned) [Example 118b] was tested, and the IC50 (CDK2/CyclinE1) was less than 0.01 µM, the IC50 (CDK1/CyclinB) was 0.01 to 0.1 µM and the IC50 (CDK9/CyclinT1) was 0.01 to 0.1 µM.

Work on CC(C)CS(=O)(=O)N1CCC(Nc2ncc(C#N)c(OC3CCCC3(C)O)n2)CC1 (single isomer, unassigned) [Example 39b] yielded an IC50 (CDK2/CyclinE1) of 0.01 to 0.1 µM, an IC50 (CDK1/CyclinB) of 0.1 to 1 µM and an IC50 (CDK9/CyclinT1) of no less than 1 µM.

Work on CNS(=O)(=O)c1ccc(Nc2ncc(C(F)(F)F)c(OC3CCOCC3O)n2)cc1 (single isomer, unassigned) [Example 116b] yielded an IC50 (CDK2/CyclinE1) of 0.01 to 0.1 µM, an IC50 (CDK1/CyclinB) of 0.1 to 1 µM and an IC50 (CDK9/CyclinT1) of no less than 1 µM.

For N#Cc1cnc(Nc2ccc(S(N)(=O)=O)cc2)nc1N1CCC[C@@H](CO)C1 [Example 79], the IC50 (CDK2/CyclinE1) was 0.01 to 0.1 µM, the IC50 (CDK1/CyclinB) was 0.1 to 1 µM and the IC50 (CDK9/CyclinT1) was 0.1 to 1 µM.

Molecule [2H]C([2H])([2H])NS(=O)(=O)c1ccc(Nc2ncc(CC)c(OC3CCOCC3(C)O)n2)cc1 (single isomer, unassigned) [Example 152a] has an IC50 (CDK2/CyclinE1) of less than 0.01 µM, an IC50 (CDK1/CyclinB) of less than 0.01 µM and an IC50 (CDK9/CyclinT1) of 0.01 to 0.1 µM.

Cc1cnc(Nc2ccc(S(N)(=O)=O)cc2)nc1O[C@@H]1CCC[C@@H]1O (single isomer, unassigned) [Example 132b, cis-4-((4-((2-hydroxycyclopentyl)oxy)-5-methylpyrimidin-2-yl)amino)benzenesulfonamide] showed an IC50 (CDK2/CyclinE1) of 0.01 to 0.1 µM, an IC50 (CDK1/CyclinB) of 0.1 to 1 µM and an IC50 (CDK9/CyclinT1) of 0.1 to 1 µM.

N#Cc1cnc(Nc2ccc(S(N)(=O)=O)cc2)nc1OC1CCCC(O)C1 (single isomer, unassigned) [Example 21a] was tested, and the IC50 (CDK2/CyclinE1) was less than 0.01 µM, the IC50 (CDK1/CyclinB) was 0.1 to 1 µM and the IC50 (CDK9/CyclinT1) was 0.1 to 1 µM.

CC(C)NS(=O)(=O)c1ccc(Nc2ncc(Cl)c(OC3CCCC3O)n2)cc1 (single isomer, unassigned) [Example 138b] showed an IC50 (CDK2/CyclinE1) of less than 0.01 µM, an IC50 (CDK1/CyclinB) of 0.01 to 0.1 µM and an IC50 (CDK9/CyclinT1) of 0.1 to 1 µM.

Molecule CC1(O)CCCC1Oc1nc(Nc2ccc(S(N)(=O)=O)cc2)ncc1C#N (single isomer, unassigned) [Example 23b] has an IC50 (CDK2/CyclinE1) of 0.01 to 0.1 µM, an IC50 (CDK1/CyclinB) of 0.1 to 1 µM and an IC50 (CDK9/CyclinT1) of 0.1 to 1 µM.

NS(=O)(=O)c1ccc(Nc2ncc(C(F)(F)F)c(O[C@H]3[C@@H]4CC[C@@H](C4)[C@H]3O)n2)cc1 (single isomer, unassigned) [Example 113b] was tested, and the IC50 (CDK2/CyclinE1) was less than 0.01 µM, the IC50 (CDK1/CyclinB) was 0.01 to 0.1 µM and the IC50 (CDK9/CyclinT1) was 0.1 to 1 µM.

With N#Cc1cnc(Nc2ccc(S(=O)(=O)NC3CC(F)C3)cc2)nc1OC1CCCCC1O (single isomer, unassigned) [Example 31b] the IC50 (CDK2/CyclinE1) was 0.01 to 0.1 µM, the IC50 (CDK1/CyclinB) was 0.1 to 1 µM and the IC50 (CDK9/CyclinT1) was no less than 1 µM.

Molecule NS(=O)(=O)c1ccc(Nc2ncc(C(F)(F)F)c(O[C@H]3[C@@H]4CC[C@@H](C4)[C@H]3O)n2)cc1 (single isomer, unassigned) [Example 113a] has an IC50 (CDK2/CyclinE1) of less than 0.01 µM, an IC50 (CDK1/CyclinB) of 0.1 to 1 µM and an IC50 (CDK9/CyclinT1) of 0.1 to 1 µM.

With N#Cc1cnc(Nc2ccc(S(N)(=O)=O)cc2)nc1OC1CCCCCC1O (single isomer, unassigned) [Example 22b] the IC50 (CDK2/CyclinE1) was less than 0.01 µM, the IC50 (CDK1/CyclinB) was 0.01 to 0.1 µM and the IC50 (CDK9/CyclinT1) was 0.1 to 1 µM.

For NS(=O)(=O)c1ccc(Nc2ncc(Cl)c(OC3CCCC3O)n2)cc1 (single isomer, unassigned) [Example 136b], the IC50 (CDK2/CyclinE1) was less than 0.01 µM, the IC50 (CDK1/CyclinB) was 0.01 to 0.1 µM and the IC50 (CDK9/CyclinT1) was 0.1 to 1 µM.

In the case of O=S(=O)(NC1CC1)c1ccc(Nc2ncc(C(F)(F)F)c(OC3CCCC3O)n2)cc1 (single isomer, unassigned) [Example 107b], the IC50 (CDK2/CyclinE1) is reported as less than 0.01 µM, the IC50 (CDK1/CyclinB) is reported as 0.01 to 0.1 µM and the IC50 (CDK9/CyclinT1) is reported as 0.1 to 1 µM.

[2H]C([2H])([2H])NS(=O)(=O)c1ccc(Nc2ncc(CC)c(OC3COCCC3(C)O)n2)cc1 (single isomer, unassigned) [Example 153b] gave an IC50 (CDK2/CyclinE1) of 0.01 to 0.1 µM, an IC50 (CDK1/CyclinB) of no less than 1 µM and an IC50 (CDK9/CyclinT1) of no less than 1 µM.
